In assay [1] the target is T1, NE reuptake (NE transporter) (Rattus norvegicus, UniProt Q63380).
T1 construct: from tissue; host or cells: Wistar rat brain (procerebrum; crude synaptosomal supernatant)
The experiment in a line: Inhibition of NE reuptake in rat brain synaptosome (3H-NE uptake). Conditions: 10 μM, read-out: NE reuptake percent inhibition. In kind it is biochemical. The protocol: (§1) All the target compounds were evaluated for their inhibitory activity against the reuptake of 5-HT and NE at the cellular level. Rat brain tissue was used for the uptake test, which included ^3H-5-HT and ^3H-NE [15]. 1-[7,8-^3H]-Noradrenaline and 5-hydroxy-[^3H]-tryptamine trifluoroacetate were obtained from Amersham Corporation.
(§2) Adult male Wistar rats were used. Animals were killed by decapitation and the whole brain, with the exception of the brainstem and cerebellum, was quickly removed. The procerebrum region was prepared, weighed, and homogenized in 10 volumes of ice-cold 0.32 mol/L sucrose solution using a glass homogenizer. The homogenate was centrifuged at 1000× g and 4 °C for 10 min. The supernatant was decanted and used for the uptake experiments. […] For each assay, three tubes were incubated with the vehicle (20 µL) at 0 °C in an ice bath. After incubation, the tubes were immediately filtered with a cell harvester. The fiberglass filter membrane was washed three times with ice-cold saline, placed in a scintillation vial, and counted in liquid scintillation cocktail (4 mL). Active uptake was the difference between the counts per minute at 37 and 0 °C. The percent inhibition at each drug concentration was the mean of three measurements.

Assay [2] addresses T2, 5-HT reuptake (5-HT transporter) (Rattus norvegicus, UniProt P31652).
T2 construct: from tissue; host or cells: Wistar rat brain (procerebrum; crude synaptosomal supernatant)
The assay can be described thus: Inhibition of 5-HT reuptake in rat brain synaptosome (3H-5-HT uptake). Type of assay: biochemical. The note with it: 10 μM, read-out: 5-HT reuptake percent inhibition. The protocol:
as §1, §2

Where a name gives a salt, the structure may show the parent alone.

T1 sequence (Q63380 1-617): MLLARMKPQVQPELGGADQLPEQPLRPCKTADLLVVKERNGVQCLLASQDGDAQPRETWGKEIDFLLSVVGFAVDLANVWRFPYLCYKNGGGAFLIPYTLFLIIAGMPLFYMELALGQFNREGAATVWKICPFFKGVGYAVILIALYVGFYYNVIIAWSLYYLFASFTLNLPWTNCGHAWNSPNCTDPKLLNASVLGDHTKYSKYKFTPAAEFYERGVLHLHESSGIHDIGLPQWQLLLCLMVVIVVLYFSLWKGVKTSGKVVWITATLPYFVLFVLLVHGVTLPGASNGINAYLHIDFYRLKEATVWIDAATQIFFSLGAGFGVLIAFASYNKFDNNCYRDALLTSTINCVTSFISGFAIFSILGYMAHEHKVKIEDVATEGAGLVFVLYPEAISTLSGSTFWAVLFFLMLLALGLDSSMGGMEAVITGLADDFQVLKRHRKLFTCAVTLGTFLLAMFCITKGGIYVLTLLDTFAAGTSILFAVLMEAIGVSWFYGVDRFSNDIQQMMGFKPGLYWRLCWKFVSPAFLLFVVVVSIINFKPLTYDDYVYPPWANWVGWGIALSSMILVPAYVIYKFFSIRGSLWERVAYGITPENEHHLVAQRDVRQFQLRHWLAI
T2 sequence (P31652 whole entry): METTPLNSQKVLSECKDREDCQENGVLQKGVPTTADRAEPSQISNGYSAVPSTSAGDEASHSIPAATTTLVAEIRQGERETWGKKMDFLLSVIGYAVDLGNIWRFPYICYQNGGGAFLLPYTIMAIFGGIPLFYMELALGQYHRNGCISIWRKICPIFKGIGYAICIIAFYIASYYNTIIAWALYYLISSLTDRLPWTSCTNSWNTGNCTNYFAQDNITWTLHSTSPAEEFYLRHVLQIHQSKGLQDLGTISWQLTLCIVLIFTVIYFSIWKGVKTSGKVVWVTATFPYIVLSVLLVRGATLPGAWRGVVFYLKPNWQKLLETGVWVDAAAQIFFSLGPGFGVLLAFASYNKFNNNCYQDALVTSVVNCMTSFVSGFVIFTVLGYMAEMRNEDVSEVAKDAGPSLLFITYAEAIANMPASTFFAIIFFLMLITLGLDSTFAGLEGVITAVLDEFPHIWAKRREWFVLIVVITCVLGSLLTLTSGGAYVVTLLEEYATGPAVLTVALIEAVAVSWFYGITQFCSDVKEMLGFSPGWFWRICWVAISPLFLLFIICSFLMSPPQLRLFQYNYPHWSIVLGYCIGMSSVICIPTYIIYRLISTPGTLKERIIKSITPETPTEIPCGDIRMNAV

In the case of `O=[N+]([O-])c1ccc(/C(=N\Cc2ccccc2)N2CCNCC2)cc1` [Compound I-2, (E)-N-((4-Nitrophenyl)(piperazin-1-yl)methylene)-1-phenylmethanaminehydrochloride], the inhibition at 10 µM in assay [1] is 66%; in assay [2] it was 38%.
The matching figures for `Clc1ccccc1/C(=N\Cc1ccccc1)N1CCNCC1` [Compound I-3, (E)-N-((2-Chlorophenyl)(piperazin-1-yl)methylene)-1-phenylmethanaminehydrochloride]: 65% and 48%.
In the same order, the values of `Clc1cccc(/C(=N\Cc2ccccc2)N2CCNCC2)c1` [Compound I-4, (E)-N-((3-Chlorophenyl)(piperazin-1-yl)methylene)-1-phenylmethanaminehydrochloride] are 63% and 58%.
The matching figures for `Clc1ccc(/C(=N\Cc2ccccc2)N2CCNCC2)cc1` [Compound I-5, (E)-N-((4-Chlorophenyl)(piperazin-1-yl)methylene)-1-phenylmethanaminehydrochloride]: 57% and 47%.
Turning to `Fc1ccc(/C(=N\Cc2ccccc2)N2CCNCC2)cc1` [Compound I-6, (E)-N-((4-Fluorophenyl)(piperazin-1-yl)methylene)-1-phenylmethanaminehydrochloride], the inhibition at 10 µM in assay [1] is 39%; in assay [2] it was 17%.
The matching figures for `Fc1ccccc1/C(=N\Cc1ccccc1)N1CCNCC1` [Compound I-7, (E)-N-((2-Fluorophenyl)(piperazin-1-yl)methylene)-1-phenylmethanaminehydrochloride]: 35% and 38%.
In the same order, the values of `N#Cc1ccc(/C(=N\Cc2ccccc2)N2CCNCC2)cc1` [Compound I-8, (E)-4-((Benzylimino)(piperazin-1-yl)methyl)benzonitrilehydrochloride] are 67% and 54%.
With `N#Cc1cccc(/C(=N\Cc2ccccc2)N2CCNCC2)c1` [Compound I-9, (E)-3-((Benzylimino)(piperazin-1-yl)methyl)benzonitrilehydrochloride], the results for the inhibition at 10 µM in assay [1] and in assay [2] were 51% and 65%, respectively.
In the case of `Cc1ccc(/C(=N\Cc2ccccc2)N2CCNCC2)cc1` [Compound I-10, (E)-1-Phenyl-N-(piperazin-1-yl(p-tolyl)methylene)methanaminehydrochloride], the inhibition at 10 µM in assay [1] was found to be 47%; in assay [2], 61%.
Consider `O=[N+]([O-])c1ccc(/C(=N\Cc2ccccc2)N2CCNCC2)c(Cl)c1` [Compound I-11, (E)-N-((2-Chloro-4-nitrophenyl)(piperazin-1-yl)methylene)-1-phenylmethanaminehydrochloride], for which the inhibition at 10 µM in assay [1] came out at 49%; in assay [2], 50%.
Turning to `O=[N+]([O-])c1ccc(/C(=N\Cc2ccc(Cl)cc2)N2CCNCC2)cc1` [Compound I-12, (E)-1-(4-Chlorophenyl)-N-((4-nitrophenyl)(piperazin-1-yl)methylene)methanaminehydrochloride], the inhibition at 10 µM in assay [1] amounted to 81%; in assay [2], 51%.
In the same order, the values of `Clc1ccc(C/N=C(\c2ccccc2Cl)N2CCNCC2)cc1` [Compound I-13, (E)-1-(4-Chlorophenyl)-N-((2-chlorophenyl)(piperazin-1-yl)methylene)methanaminehydrochloride] are 84% and 67%.
`Clc1ccc(C/N=C(\c2cccc(Cl)c2)N2CCNCC2)cc1` [Compound I-14, (E)-1-(4-Chlorophenyl)-N-((3-chlorophenyl)(piperazin-1-yl)methylene)methanaminehydrochloride]: the inhibition at 10 µM worked out at 60% in assay [1] and 76% in assay [2].
The matching figures for `Clc1ccc(C/N=C(\c2ccc(Cl)cc2)N2CCNCC2)cc1` [Compound I-15, (E)-1-(4-Chlorophenyl)-N-((4-chlorophenyl)(piperazin-1-yl)methylene)methanaminehydrochloride]: 68% and 48%.
The matching figures for `Fc1ccc(/C(=N\Cc2ccc(Cl)cc2)N2CCNCC2)cc1` [Compound I-16, (E)-1-(4-Chlorophenyl)-N-((4-fluorophenyl)(piperazin-1-yl)methylene)methanaminehydrochloride]: 26% and 45%.
In the same order, the values of `Fc1ccccc1/C(=N\Cc1ccc(Cl)cc1)N1CCNCC1` [Compound I-17, (E)-1-(4-Chlorophenyl)-N-((2-fluorophenyl)(piperazin-1-yl)methylene)methanaminehydrochloride] are 27% and 43%.
Regarding `N#Cc1ccc(/C(=N\Cc2ccc(Cl)cc2)N2CCNCC2)cc1` [Compound I-18, (E)-1-(4-Chlorophenyl)-N-((4-cyanophenyl)(piperazin-1-yl)methylene)methanaminehydrochloride], the inhibition at 10 µM in assay [1] was 63%; in assay [2], 75%.
The matching figures for `Cc1ccc(/C(=N\Cc2ccc(Cl)cc2)N2CCNCC2)cc1` [Compound I-20, (E)-1-(4-Chlorophenyl)-N-(piperazin-1-yl(p-tolyl)methylene)methanaminehydrochloride]: 35% and 72%.
On to `COc1ccc(C/N=C(\c2ccc([N+](=O)[O-])cc2)N2CCNCC2)cc1` [Compound I-21, (E)-1-(4-Methoxyphenyl)-N-((4-nitrophenyl)(piperazin-1-yl)methylene)methanaminehydrochloride], for which the inhibition at 10 µM in assay [1] is 57%; in assay [2] it was 34%.
In the same order, the values of `c1ccc(/C(=N\Cc2cccc3ccccc23)N2CCNCC2)cc1` [II-1, (E)-1-(Naphthalen-1-yl)-N-(phenyl(piperazin-1-yl)methylene)methanaminehydrochloride] are 67% and 80%.
The matching figures for `O=[N+]([O-])c1ccc(/C(=N\Cc2cccc3ccccc23)N2CCNCC2)cc1` [II-2, (E)-1-(Naphthalen-1-yl)-N-((4-nitrophenyl)(piperazin-1-yl)methylene)methanaminehydrochloride]: 52% and 57%.
In the same order, the values of `Fc1ccc(/C(=N\Cc2cccc3ccccc23)N2CCNCC2)cc1` [II-3, (E)-N-((4-Fluorophenyl)(piperazin-1-yl)methylene)-1-(naphthalen-1-yl)methanaminehydrochloride] are 76% and 84%.
Consider `Clc1cccc(/C(=N\Cc2cccc3ccccc23)N2CCNCC2)c1` [II-6, (E)-N-((3-Chlorophenyl)(piperazin-1-yl)methylene)-1-(naphthalen-1-yl)methanaminehydrochloride], for which the inhibition at 10 µM in assay [1] came out at 75%; in assay [2], 65%.
In the same order, the values of `Clc1ccc(/C(=N\Cc2cccc3ccccc23)N2CCNCC2)cc1` [II-7, (E)-N-((4-Chlorophenyl)(piperazin-1-yl)methylene)-1-(naphthalen-1-yl)methanaminehydrochloride] are 59% and 62%.

The inhibition is the share of the control response that was lost under treatment.

Values taken from PMC6385122, “Design and Synthesis of Arylamidine Derivatives as Serotonin/Norepinephrine Dual Reuptake Inhibitors” (Molecules, 2019).
